Measured values published in patent US6413530B1, “Pesticidal peptides” (priority 1999, dated 2002).
Read-outs that look alike come from different tables or passages of the source. Where a SMILES comes first, the peptide text is derived from it. Where no end group is shown, it is not given here. [ ]: non-standard residue; d: D form.

How the values were obtained:
[1] = system: First instar larvae of H. virescens; assay: Feeding of first instar H. virescens on TMOF analogs for 14 days; assay type: in vivo, Heliothis virescens; settings: for Number of Dead Larvae / Weight (mg) ± S.E.M. / Weight Reduction (%) ± S.E.M.: first instar larvae, 1.6 μg analog, 14 days; for Weight Reduction (%) ± S.E.M.: versus control; for reduction in weight: first instar larvae fed for 14 days
Protocol: (§1) Individual first instar and fourth instar larvae of H. virescens were maintained in separate plastic cups and were fed on artificial diet blocks on which different concentrations of TMOF (0 to 1.6 mg) were adsorbed. Larvae were fed for 5 to 14 days and larval weight and trypsin activity were measured at the end of the experimental periods. […] When first instar larvae were fed for 14 days, an 18% and 26% reduction in weight was observed when analogues 15 and 14 were used (Table 4).

[2] = system: fourth instar H. virescens; assay: Feeding TMOF analogues to fourth instar H. virescens: larval weight; assay type: in vivo, Heliothis virescens; settings: for Weight Gain / Weight mg ± S.E.M. End: fourth instar larvae; for Weight Gain: 0.8 μg analog for 5 days; for Weight mg ± S.E.M. End: synthetic food and 0.8 μg analog for 5 days; for reduction in larval weight: fourth instar larvae fed analogue peptides for 5 days
Protocol: as §1

trypsin biosynthesis = assay: Trypsin biosynthesis in guts of fourth instar H. virescens fed TMOF analogues ([3H]DFP); assay type: in vivo, Heliothis virescens; settings: for Trypsin μg ± S.E.M.: guts removed after 5 days feeding 0.8 μg analog, incubated with [3H]DFP; for Inhibition (% ± S.E.M.) of trypsin: versus control, after 5 days feeding 0.8 μg analog; for reduction in trypsin biosynthesis: fourth instar larvae fed analogue peptides for 5 days
Protocol: as §1

mosquito larvae = assay type: in vivo; settings: newly hatched larvae on autoclaved yeast 1 mg/ml plus peptide, microtiter plates, 7 days
Protocol: Preferably, the subject peptides have an LD50 against mosquito larvae of less than 3.0 μmole/ml. More preferably, the peptides have an LD50 of less than […], and, most preferably, the peptides have an LD50 of less than 1.0 μmole/ml. As used herein, “LD50” refers to a lethal dose of a peptide able to cause 50% mortality of larvae maintained on a diet of 1 mg/ml autoclaved yeast supplemented with the pesticidal polypeptide. (Borovsky, Dov, and Farida Mahmood [1995] Regulatory Peptides 57:273-281).
TMOF can traverse the gut epithelium, enter the hemolymph and bind a gut receptor (Borovsky, D. and F. Mahmood (1995) “Feeding the mosquito Aedes aegypti with TMOF and its analogs; effect on trypsin biosynthesis and egg development,” Regulatory Peptides 57:273-281.; Borovsky et al. (1994) “Characterization and localization of mosquito-gut receptors for trypsin modulating oostatic factor using complementary peptide immunochemistry” FASEB J. 8:350-355.). This characteristic permits the testing of TMOF and its analogues by feeding them to mosquito and other pest larvae. To find out if truncated TMOF peptides have an effect on larval growth and development, a series of peptides were synthesized and tested by feeding them to mosquito larvae at concentrations of 0 to 5.0 mg/ml (Table 2). Individual, newly hatched Aedes aegypti larvae were maintained in separate microtiter plate wells on a diet of autoclaved yeast (1 mg/ml). The diet was supplemented with TMOF peptides (Table 2). An identical number of larvae maintained on yeast served as a control. […] All control groups survived and larval growth and development was normal. Since larvae swallow only a small portion of the yeast particles adsorbed the peptides, it is assumed that approximately 1 to 20 ng are taken orally at the high concentrations.

Compound: C[C@H](NC(=O)[C@@H]1CCCN1C(=O)[C@@H](CC(=O)O)NC(=O)[C@@H](N)Cc1ccc(O)cc1)C(=O)N1CCC[C@H]1C(=O)O [Compound 17, Y(D)DPAP] (H-Y[dD]PAP-OH; N-terminus and C-terminus assumed)
- Number of Dead Larvae [1]: 1
- Weight (mg) ± S.E.M. [1]: 152 ± 27 mg
- Weight Reduction (%) ± S.E.M. [1]: 7 ± 1%
- Weight Gain [2]: 153 mg
- Weight mg ± S.E.M. End [2]: 188 ± 12 mg
- Trypsin μg ± S.E.M. (trypsin biosynthesis): 2.1 ± 0.2 µg
- Inhibition (% ± S.E.M.) of trypsin (trypsin biosynthesis): 15 ± 1.3%

Compound: N[C@@H](Cc1ccc(O)cc1)C(=O)N[C@H](CC(=O)O)C(=O)N1CCC[C@H]1C(=O)O [Compound 22, Y(D)DP] (H-Tyr-[dD]-Pro-OH; N-terminus and C-terminus assumed)
- LD50 ± S.E.M. (mosquito larvae; left half of Table 2): 0.28 ± 0.01 mM

Compound: (D)YDP [Compound 24]
- LD50 ± S.E.M. (mosquito larvae; right half of Table 2): 0.51 ± 0.05 Mm

Compound: AAP [Compound 29]
- LD50 ± S.E.M. (mosquito larvae; right half of Table 2): 1.08 ± 0.07 Mm

Compound: ADP [Compound 40]
- LD50 ± S.E.M. (mosquito larvae; right half of Table 2): >6.6 Mm

Compound: ADPAP [Compound 21, ADPAP]
- Number of Dead Larvae [1]: 0
- Weight (mg) ± S.E.M. [1]: 141 ± 9 mg
- Weight Reduction (%) ± S.E.M. [1]: 7 ± 0.4%
- Weight Gain [2]: 174.1 mg
- Weight mg ± S.E.M. End [2]: 209.7 ± 12 mg
- Trypsin μg ± S.E.M. (trypsin biosynthesis): 2.4 ± 0.3 µg
- Inhibition (% ± S.E.M.) of trypsin (trypsin biosynthesis): 5 ± 0.6%
- LD50 ± S.E.M. (mosquito larvae; left half of Table 2): 2.0 ± 0.36 mM

Compound: APA [Compound 28]
- LD50 ± S.E.M. (mosquito larvae; right half of Table 2): 1.0 ± 0.07 Mm

Compound: DAA [Compound 25]
- LD50 ± S.E.M. (mosquito larvae; right half of Table 2): 0.91 ± 0.06 Mm

Compound: DPA [Compound 23]
- LD50 ± S.E.M. (mosquito larvae; right half of Table 2): 0.4 ± 0.03 Mm

Compound: DYP [Compound 31]
- Number of Dead Larvae [1]: 1
- Weight (mg) ± S.E.M. [1]: 149 ± 9 mg
- Weight Reduction (%) ± S.E.M. [1]: 9 ± 0.5%
- Weight Gain [2]: 180.5 mg
- Weight mg ± S.E.M. End [2]: 216.7 ± 13 mg
- Trypsin μg ± S.E.M. (trypsin biosynthesis): 2.2 ± 0.3 µg
- Inhibition (% ± S.E.M.) of trypsin (trypsin biosynthesis): 14 ± 1.8%
- LD50 ± S.E.M. (mosquito larvae; right half of Table 2): 1.27 ± 0.17 Mm

Compound: FAP [Compound 39]
- LD50 ± S.E.M. (mosquito larvae; right half of Table 2): 3.8 ± 0.23 Mm

Compound: FDP [Compound 33]
- LD50 ± S.E.M. (mosquito larvae; right half of Table 2): 1.98 ± 0.6 Mm

Compound: FDPAP [Compound 5, FDPAP]
- LD50 ± S.E.M. (mosquito larvae; left half of Table 2): 0.37 ± 0.15 mM

Compound: FSP [Compound 35]
- LD50 ± S.E.M. (mosquito larvae; right half of Table 2): 2.3 ± 0.13 Mm

Compound: MPDYPPPPP [Compound 2, MPDYP5]
- LD50 ± S.E.M. (mosquito larvae; left half of Table 2): >3.0 mM

Compound: PAA [Compound 37]
- LD50 ± S.E.M. (mosquito larvae; right half of Table 2): 2.4 ± 0.34 Mm

Compound: PAP [Compound 38]
- LD50 ± S.E.M. (mosquito larvae; right half of Table 2): 3.17 ± 0.14 Mm

Compound: YAP [Compound 36]
- LD50 ± S.E.M. (mosquito larvae; right half of Table 2): 2.3 ± 0.5 Mm

Compound: YAPAP [Compound 8, YAPAP]
- LD50 ± S.E.M. (mosquito larvae; left half of Table 2): 0.54 ± 0.13 mM

Compound: YDA [Compound 32]
- LD50 ± S.E.M. (mosquito larvae; right half of Table 2): 1.6 ± 0.13 Mm

Compound: YDAAP [Compound 15, YDAAP]
- reduction in weight [1]: 18%
- Number of Dead Larvae [1]: 0
- Weight (mg) ± S.E.M. [1]: 133 ± 7 mg
- Weight Reduction (%) ± S.E.M. [1]: 18 ± 1%
- reduction in larval weight [2]: reduction
- Weight Gain [2]: 179 mg
- Weight mg ± S.E.M. End [2]: 217 ± 9.5 mg
- reduction in trypsin biosynthesis (trypsin biosynthesis): reduction
- Trypsin μg ± S.E.M. (trypsin biosynthesis): 2.1 ± 0.2 µg
- Inhibition (% ± S.E.M.) of trypsin (trypsin biosynthesis): 17 ± 1.6%
- LD50 ± S.E.M. (mosquito larvae; left half of Table 2): 1.0 ± 0.18 mM

Compound: YDF [Compound 27]
- LD50 ± S.E.M. (mosquito larvae; right half of Table 2): 0.97 ± 0.11 Mm

Compound: YDFAP [Compound 14, YDFAP]
- reduction in weight [1]: 26%
- Number of Dead Larvae [1]: 1
- Weight (mg) ± S.E.M. [1]: 121 ± 7 mg
- Weight Reduction (%) ± S.E.M. [1]: 26 ± 1.5%
- reduction in larval weight [2]: reduction
- Weight Gain [2]: 164 mg
- Weight mg ± S.E.M. End [2]: 201 ± 12 mg
- reduction in trypsin biosynthesis (trypsin biosynthesis): reduction
- Trypsin μg ± S.E.M. (trypsin biosynthesis): 2.1 ± 0.2 µg
- Inhibition (% ± S.E.M.) of trypsin (trypsin biosynthesis): 19 ± 1.5%
- LD50 ± S.E.M. (mosquito larvae; left half of Table 2): 0.74 ± 0.13 mM

Compound: YDG [Compound 26]
- LD50 ± S.E.M. (mosquito larvae; right half of Table 2): 0.95 ± 0.11 Mm

Compound: YDLAP [Compound 13, YDLAP]
- LD50 ± S.E.M. (mosquito larvae; left half of Table 2): 0.6 ± 0.05 mM

Compound: YDP [Compound 34]
- Number of Dead Larvae [1]: 0
- Weight (mg) ± S.E.M. [1]: 157 ± 10 mg
- Weight Reduction (%) ± S.E.M. [1]: 4 ± 0.2%
- Weight Gain [2]: 186.3 mg
- Weight mg ± S.E.M. End [2]: 223.4 ± 16 mg
- Trypsin μg ± S.E.M. (trypsin biosynthesis): 2.1 ± 0.3 µg
- Inhibition (% ± S.E.M.) of trypsin (trypsin biosynthesis): 19 ± 3.2%
- LD50 ± S.E.M. (mosquito larvae; right half of Table 2): 2.3 ± 0.4 Mm

Compound: YDPAA [Compound 19, YDPAA]
- LD50 ± S.E.M. (mosquito larvae; left half of Table 2): 1.6 ± 0.13 mM

Compound: YDPAF [Compound 3, YDPAF]
- LD50 ± S.E.M. (mosquito larvae; left half of Table 2): 0.33 ± 0.2 mM

Compound: YDPAL [Compound 7, YDPAL]
- LD50 ± S.E.M. (mosquito larvae; left half of Table 2): 0.52 ± 0.03 mM

Compound: YDPAP [Compound 12, YDPAP, reference compound]
- LD50 ± S.E.M. (mosquito larvae; left half of Table 2): 1.64 ± 0.03 mM

Compound: YDPAPPPPPP [Compound 1, YDPAP6, reference compound]
- LD50 ± S.E.M. (mosquito larvae; left half of Table 2): 0.2 ± 0.02 mM

Compound: YDPFP [Compound 20, YDPFP]
- LD50 ± S.E.M. (mosquito larvae; left half of Table 2): 1.7 ± 0.4 mM

Compound: YDPGP [Compound 16, YDPGP]
- Number of Dead Larvae [1]: 2
- Weight (mg) ± S.E.M. [1]: 153 ± 10 mg
- Weight Reduction (%) ± S.E.M. [1]: 6 ± 0.4%
- Weight Gain [2]: 163.1 mg
- Weight mg ± S.E.M. End [2]: 199.8 ± 11 mg
- Trypsin μg ± S.E.M. (trypsin biosynthesis): 2.1 ± 0.1 µg
- Inhibition (% ± S.E.M.) of trypsin (trypsin biosynthesis): 17 ± 1%
- LD50 ± S.E.M. (mosquito larvae; left half of Table 2): 1.1 ± 0.18 mM

Compound: YDPLP [Compound 6, YDPLP]
- LD50 ± S.E.M. (mosquito larvae; left half of Table 2): 1.5 ± 0.04 mM

Compound: YEPAP [Compound 4, YEPAP]
- LD50 ± S.E.M. (mosquito larvae; left half of Table 2): 0.35 ± 0.02 mM

Compound: YFPAP [Compound 11, YFPAP]
- LD50 ± S.E.M. (mosquito larvae; left half of Table 2): 0.64 ± 0.03 mM

Compound: YNPAP [Compound 9, YNPAP]
- LD50 ± S.E.M. (mosquito larvae; left half of Table 2): 0.55 ± 0.03 mM

Compound: YSF [Compound 30]
- LD50 ± S.E.M. (mosquito larvae; right half of Table 2): 1.08 ± 0.12 Mm

Compound: YSPAP [Compound 18, YSPAP]
- Number of Dead Larvae [1]: 0
- Weight (mg) ± S.E.M. [1]: 168 ± 11 mg
- Weight Reduction (%) ± S.E.M. [1]: 0%
- reduction in larval weight [2]: reduction
- Weight Gain [2]: 151 mg
- Weight mg ± S.E.M. End [2]: 188 ± 10.6 mg
- reduction in trypsin biosynthesis (trypsin biosynthesis): reduction
- Trypsin μg ± S.E.M. (trypsin biosynthesis): 2.0 ± 0.2 µg
- Inhibition (% ± S.E.M.) of trypsin (trypsin biosynthesis): 19 ± 2%
- LD50 ± S.E.M. (mosquito larvae; left half of Table 2): 1.4 ± 0.03 mM
